A short description of series [1]: Inhibition of human CES2A incubated for 3 mins.
A short description of series [2]: Inhibition of human CES2A incubated for 33 mins.
The nature of series [3]: (§1) Covalent inhibition of human CES2A.
The species named for series [4] is Homo sapiens. The series is described as §1.
The species named for series [5] is Homo sapiens. Description: Covalent binding affinity to human CES2A Ser228 catalytic site assessed as covalent modification at 10 uM incubated for 4 hrs by nano-LC-MS/MS analysis.
The target of series [6] is T1, Palmitoleoyl-protein carboxylesterase NOTUM (Homo sapiens, UniProt Q6P988).
T1 sequence (Q6P988 whole entry): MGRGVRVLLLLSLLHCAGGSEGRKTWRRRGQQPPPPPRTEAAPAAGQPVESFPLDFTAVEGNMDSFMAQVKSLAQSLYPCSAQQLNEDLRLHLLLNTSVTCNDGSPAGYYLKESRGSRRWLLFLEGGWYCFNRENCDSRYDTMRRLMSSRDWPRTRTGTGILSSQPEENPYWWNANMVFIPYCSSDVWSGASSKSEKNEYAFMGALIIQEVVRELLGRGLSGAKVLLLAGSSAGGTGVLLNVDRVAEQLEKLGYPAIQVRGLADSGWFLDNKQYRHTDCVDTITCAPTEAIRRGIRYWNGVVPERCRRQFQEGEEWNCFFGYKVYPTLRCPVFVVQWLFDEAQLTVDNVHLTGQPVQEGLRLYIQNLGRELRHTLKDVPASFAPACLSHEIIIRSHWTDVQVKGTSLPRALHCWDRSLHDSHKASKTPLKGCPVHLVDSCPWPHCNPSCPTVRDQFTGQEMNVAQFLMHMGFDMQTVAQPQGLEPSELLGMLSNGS
Description: Inhibition of human Notum using OPTS as substrate preincubated for 1 min followed by substrate addition by fluorescence based assay.

A further series has as its target Prothrombin (Homo sapiens, UniProt P00734). Description: Inhibition of human Thrombin using Z-GGRAMC as substrate preincubated for 3 mins followed by substrate addition by fluorescence based assay.
The nature of series [7]: Permeability across apical to basal side in human Caco-2 cells assessed as cumulative penetration amount at 100 uM incubated for 120 mins by UPLC-MS/MS analysis. As to conditions: caco-2, 2 h. Format: ADME, cell-based. For orientation: Caco-2 monolayers are a common model of the intestinal barrier.
Series [8] is described as follows: Apparent permeability across basal to apical side in human Caco-2 cells at 25 uM incubated for 120 mins by UPLC-MS/MS analysis. It counts as ADME, cell-based.
Series [9] in a line: Apparent permeability across basal to apical side in human Caco-2 cells at 100 uM incubated for 120 mins by UPLC-MS/MS analysis. It counts as ADME, cell-based.
Series [10] is described as follows: Efflux ratio of apparent permeability across basal to apical side over apical to basal side in human Caco-2 cells at 25 uM incubated for 120 mins by UPLC-MS/MS analysis. It counts as ADME, cell-based.
Series [11] in a line: Aqueous solubility of compound by UPLC-MS/MS analysis. Format: physicochemical. As to conditions: buffer.
For another series, the target named is Cytochrome P450 2C9 (Homo sapiens, UniProt P11712). Description: Inhibition of CYP2C9 in human liver microsomes using diclofenac as substrate upto 10 uM. It counts as ADME, Microsome.
Chain of Cytochrome P450 2C9 (P11712 whole entry): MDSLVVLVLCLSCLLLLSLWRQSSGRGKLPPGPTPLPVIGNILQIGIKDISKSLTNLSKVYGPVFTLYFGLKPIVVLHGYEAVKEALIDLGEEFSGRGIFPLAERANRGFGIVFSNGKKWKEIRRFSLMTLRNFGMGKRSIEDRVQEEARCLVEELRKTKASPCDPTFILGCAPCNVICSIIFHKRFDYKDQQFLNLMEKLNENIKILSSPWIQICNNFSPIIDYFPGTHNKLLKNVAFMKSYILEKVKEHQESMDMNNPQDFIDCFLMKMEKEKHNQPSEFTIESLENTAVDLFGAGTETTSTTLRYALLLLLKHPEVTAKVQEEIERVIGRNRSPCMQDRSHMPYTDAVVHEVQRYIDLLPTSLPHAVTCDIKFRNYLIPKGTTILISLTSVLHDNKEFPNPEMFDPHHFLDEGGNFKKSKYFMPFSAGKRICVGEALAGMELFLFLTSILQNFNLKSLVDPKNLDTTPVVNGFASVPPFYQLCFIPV
A short description of series [12]: Sub-acute toxicity in C57BL/6J mouse assessed as change in movement behaviors at 100 mg/kg/day, po treated for 14 days consecutively. Format: organism-based. To be noted: in vivo, 336 h, time 14 day.
Series [13] is described as follows: Sub-acute toxicity in C57BL/6J mouse assessed as abnormality in brain at 100 mg/kg/day, po treated for 14 days consecutively by H and E staining based analysis. To be noted: in vivo, 336 h, time 14 day. Format: organism-based.
Series [14] can be described thus: Sub-acute toxicity in C57BL/6J mouse assessed as abnormality in kidney at 100 mg/kg/day, po treated for 14 days consecutively by H and E staining based analysis. It counts as organism-based. To be noted: in vivo, 336 h, time 14 day.
Series [15] in a line: Sub-acute toxicity in C57BL/6J mouse assessed as change in ALT level at 100 mg/kg/day, po treated for 14 days consecutively. To be noted: in vivo, 336 h, time 14 day. It counts as organism-based.
Series [16] in a line: Drug distribution in stomach of C57BL/6J mouse at 100 mg/kg, po administered as single dose measured for 0.5 to 3 hrs by UHPLC-Q-Orbitrap HRMS analysis. Format: ADME, organism-based. As to conditions: in vivo, time 0.5-3 hrs.
A short description of series [17]: Drug distribution in colon of C57BL/6J mouse at 100 mg/kg, po administered as single dose measured for 0.5 to 3 hrs by UHPLC-Q-Orbitrap HRMS analysis. It counts as ADME, organism-based. To be noted: in vivo, time 0.5-3 hrs.
A short description of series [18]: Drug distribution in serum of C57BL/6J mouse at 100 mg/kg, po administered as single dose measured for 0.5 to 3 hrs by UHPLC-Q-Orbitrap HRMS analysis. It counts as ADME, organism-based. To be noted: in vivo, time 0.5-3 hrs.
In series [19] the test system is Mus musculus. Description: Inhibition of irinotecan-triggered gut toxicity in C57BL/6J mouse bearing tumor cells assessed as decrease in TNF-alpha level in colon tissue administered orally treated for 14 days. As to conditions: dose 25-50 mg/kg/day, route po, time 14.0 day. Format: functional, organism-based.
The test system of series [20] is Mus musculus. Description: Inhibition of irinotecan-triggered gut toxicity in C57BL/6J mouse bearing tumor cells assessed as increase in claudin-1 level in colon tissue at 25 to 50 mg/kg/day, po treated for 14 days by immunofluorescence based analysis. Format: functional, organism-based. As to conditions: dose 25-50 mg/kg/day, time 14.0 day.
Series [21] concerns Mus musculus. Description: Inhibition of irinotecan-triggered gut toxicity in C57BL/6J mouse bearing tumor cells assessed as decrease in serum AST level at 25 to 50 mg/kg/day, po treated for 14 days. As to conditions: dose 25-50 mg/kg/day, time 14.0 day. Format: functional, organism-based.
Series [22] has as its system Mus musculus. Description: Inhibition of irinotecan-triggered gut toxicity in C57BL/6J mouse bearing tumor cells assessed as decrease in serum CREA level at 25 to 50 mg/kg/day, po treated for 14 days. It counts as functional, organism-based. To be noted: dose 25-50 mg/kg/day, time 14.0 day.

Converted amounts (≈) assume the structure as drawn. The source made the active and inactive calls. The calls are words filed in the database; no cut-off is given here.

On to `CCN(C)C(=O)Oc1ccc(C(=O)N2CCC(Cc3ccccc3)CC2)cc1OC`, for which the IC50 in series [1] is 0.69 nM; in series [2], 0.04 nM; in series [6] it was above 10000 nM; against Prothrombin, above 10000 nM. In [3], this compound registered a Ki of 0.065 nM. For the same compound, the Kinact in the series filed under Homo sapiens [4] turned out to be 0.033 min⁻¹. In addition, the Activity entry is “Active; Compound Exhibited As Covalent Inhibitor” in the series filed under Homo sapiens [5]; 9.47 µM in [7]; “Non-toxic” in series [12]; “Non-toxic” in [13]; “Non-toxic” in series [14]; “Non-toxic” in series [15]. For the same compound, in series [8], the Papp B→A at 2 h, 25 µM was 101 nm/s. Moreover, the apparent permeability from basolateral to apical (Papp B→A) at 2 h, 100 µM in series [9] worked out at 78 nm/s. For the same compound, in series [10], the efflux ratio at 2 h, 25 µM is 0.64. Also, the solubility in series [11] turned out to be 0.032 mg/mL (≈ 78 µM). In addition, the “inhibition (INH)” value at Cytochrome P450 2C9 is given as “Not_active”. The figures for the Drug uptake result in [16], in series [17] and in series [18] were “Active”, “Active” and “Not_active”, respectively. Moreover, the inhibition result with Mus musculus [19], in the series on Mus musculus [20], in the series on Mus musculus [21] and in the series with Mus musculus [22] was “Active” in each case.

As a reminder, the IC50 is the point on the concentration scale where inhibition reaches its midpoint. Low readings indicate greater potency in that assay, high ones weaker potency in that assay. By Papp B→A is commonly meant the apparent permeability from the basolateral to the apical side of a cell layer. What is called efflux ratio is the permeability from basolateral to apical divided by that in the opposite direction, in the common usage. In general, solubility refers to the dissolved amount per volume that the medium holds. The low end stands for little dissolved substance, the high end for much dissolved substance.
